{"source": "patent US20150140109A1", "about": "“DOCETAXEL-BASED PROLONGED-RELEASE CANCER TREATMENT DRUG” (OY FILANA LTD, priority 2012, published 2015)", "system": "acinic cell carcinoma of the glandula mammaria of the NZB mouse Ca 755", "assay": "Antitumor activity in mice inoculated with Ca755 mammary adenocarcinoma (tumor growth kinetics, lifetime)", "format": "in vivo, C57B1/6 female mice", "protocol": "To investigate the antitumor activity of a new dosage form of docetaxel in the composition with PLGA 50/50 the acinic cell carcinoma of the glandula mammaria of the NZB mouse Ca 755 was chosen. As the comparison object free docetaxel substance was used. The experiments were carried out on C57B1/6 female mice with the body weight of 18-20 g.\nThe anti-tumor activity of the preparations under research was estimated on the basis of the comparative analysis of tumor growth kinetics and comparing the lifetime in test groups and control groups of animals.\nThe introduction of both the docetaxel-based prolonged-release drug and the free docetaxel was started 48 hours after tumor inoculation.", "data": [{"smiles": "CC(=O)O[C@@]12CO[C@@H]1C[C@H](O)[C@@]1(C)C(=O)[C@H](O)C3=C(C)[C@@H](OC(=O)[C@H](O)[C@@H](NC(=O)OC(C)(C)C)c4ccccc4)C[C@@](O)([C@@H](OC(=O)c4ccccc4)[C@H]21)C3(C)C", "note": "[docetaxel substance, docetaxel]", "values": [{"measurement": "period for which tumor growth inhibition above 50% is retained", "setting": "even for the dose of 20 mg/kg", "result": "≤ 17", "unit": "days"}, {"measurement": "inhibiting effect upon the tumor growth", "setting": "introduction started 48 hours after tumor inoculation", "result": "strong inhibiting effect"}]}]}
